Assay results taken from patent US12673921B2, “Substituted fluorine-containing imidazole salt compound, preparation method therefor, pharmaceutical composition thereof and use thereof” (XIAMEN VIVOHEALTHS TECHNOLOGY CO., LTD., priority 2019, dated 2026).
Entries after “also recorded” stand apart in the source; their conditions may differ.

Tests used:
[1] = Liver microsome stability test, human liver microsome; type: in vitro ADME; settings: microsomes, 0.5 mg protein/mL microsome, 1 μM compound, 37° C., NADPH, read-out: HLM 0.5 T1/2 (min), half life in human liver microsome
Method: The experimental steps were as follows: • 1. Preparation of working solution • 1.1 Intermediate solution: 5 μL of a 10 mM stock solution of sample or control was taken out, and diluted with 495 μl of methanol (Conc.: 100 μM, 99% MeOH). • 1.2 Working solution: 50 μL of the intermediate solution was taken out, and diluted with 450 μL of a 100 mM potassium phosphate buffer (Conc.: 10 μM, 9.9% MeOH). • 2. Preparation of NADPH cofactor
An appropriate amount of NADPH powder was weighed, and dissolved with a MgCl2 (10 mM) solution. • 3. Liver microsome • 3.1 Liver microsome information
• 3.2 Preparation: a microsome working solution with an appropriate concentration was prepared by using a 100 mM potassium phosphate buffer. • 4. Stop solution
Glacial acetonitrile, comprising 100 ng/ml Tolbutamide and 100 ng/ml Labetalol as internal standards. • 5. Experimental procedures • 5.1 10 μL of the working solution of sample or control was added per well to all plates (T0, T5, T10, T20, T30, T60, NCF60), except for the blank group; • 5.2 80 μL of the working solution of microsome was added per well to all plates, followed by incubation for 10 min at 37° C.; • 5.3 10 μL of a 100 mM potassium phosphate buffer was added per well to NCF60, followed by incubation at 37° C. and starting timer 1;
• 5.4 After preheating, 10 μL of NADPH was added per well to each plate, and reaction was started;
Final concentration of each component in the incubation medium:
• 5.6 300 μL of the stop solution was added per well to stop the reaction; • 5.7 The system was shaken for about 10 min; • 5.8 The samples were centrifuged (4000 rpm) at 4° C. for 20 min; • 5.9 To 8 new 96-well plates, 300 μL of HPLC water was added per well, then 100 μL of the supernatant was added, mixed and subjected to LC/MS/MS.
In the above table, HLM 0.5 T1/2 (min) refers to half life (min) of compounds in human liver microsome, DLM 0.5 T1/2 (min) refers to half life (min) of compounds in Beagle dog liver microsome.

C57BL/6J male mice = test: Sugar tolerance test of mice (ip-GTT); type: in vivo, mouse; settings: intragastric 0.2, 2 mg/kg, glucose 1 g/kg i.p. after 2 h
AMPK = AMPK activity assay at cell level (western blot of p-AMPKα and p-ACC in MEFs); type: cell-based, mouse; settings: MEF cells, compound 10 nM, 2 h; multiple of the ratio relative to positive control AICAR (3 mM); band brightness by Image J
Method: The ability of compounds to activate AMPK in mouse embryonic fibroblasts (MEFs) was determined, which could be specifically carried out by detecting the phosphorylation level (p-AMPKα) of threonine at the 172nd position of AMPK and the phosphorylation level (p-ACC) of serine at the 79th position of the susbtrate ACC1/ACC2 of AMPK (FIG. 1 and Table I) by western blot.
The specific method was as follows: • (1) MEFs with loxP insertion sequences or of wild-type were plated in a 6-well plate and cultured in DMEM containing 10% serum. If a gene needed to be knocked out at this time, when the density of the corresponding MEFs with loxP insertion sequences reached about 30%, an adenovirus capable of expressing cre should be added to the culture well followed by further culture for more than 24 h; • (2) When the cell density was close to 90%, the cells were provided with fresh DMEM, at the same time, a compound (final concentration 10 nM) was added to the cells, followed by culture for 2 h, with an equal volume of DMSO as the negative control, and the cells treated with the addition of AICAR (3 mM) as the positive control; • (3) After sucking up the culture solution, the cells were lysed with 200 μL of a cell lysate (its formulation was given below), then the cells were scraped from the culture dish, ultrasonicated, and subjected to low temperature centrifugation at 20000 g for 10 min; • (4) The supernatant and an equal volume of 2*SDS solution (its formulation was given below) were mixed, and subjected to SDS-PAGE in a concentration of 8%, then the protein was transferred to PVDF membrane; each PVDF membrane was blocked with 25 mL of skim milk for 1 h, and then rinsed with TBST buffer (its formulation was given below) 3 times for 10 min each time; • (5) AMPKα subunit primary antibody (Cell Signaling Technology, #2532), primary antibody of phosphothreonine at the 172nd position of AMPK (Cell Signaling Technology, #2535), ACC primary antibody (Cell Signaling Technology, #3662), or primary antibody of phosphoserine at the 79th position of ACC (Cell Signaling Technology, #3661) was diluted in a ratio of 1:1000 with a primary antibody dilution (its formulation was given below), reacted with the PVDF membrane at room temperature for 12 h, and then rinsed 3 times with TBST buffer; • (6) A 1:1000 dilution of HRP-conjugated goat anti-rabbit secondary antibody (Jackson ImmunoResearch, 111-035-003) was added, reacted at room temperature for 1 h, and then rinsed 3 times with TBST buffer; • (7) The PVDF membrane was dried, reacted in an ECL mixture (WesternBright ECL HRP substrate, Advansta) and subjected to exposure with medical X-ray, developed, finally rinsed, dried, and then scanned to obtain data related to AMPK activation.
The formulations of reagents used were: • Cell lysate: 20 mM Tris-base, pH 7.5, 150 mM NaCl, 1 mM EDTA, 1 mM EGTA, 2.5 mM Sodium pyrophosphate, 1 mM β-glycerolphosphate, 1% Triton X-100 (v/v); • 2*SDS solution: 20% Glycerol (v/v), 4% SDS (m/v), 10% β-mecaptoethanol (v/v), 0.01% Bromophenol blue (m/v); • TBST buffer: 4.84% Tris-base (m/v), 8% NaCl (m/v), 0.1% Tween-20 (v/v); • Primary antibody dilution: TBST buffer containing 5% BSA (v/v).

human hepatocytes = test: Hepatocyte metabolism assay; type: in vitro ADME
Method: Experimental procedures: a test sample (concentration: 10 μM) or a positive control (concentration: 30 μM) was co-incubated with hepatic cells of various genera (cell density: 1.0×10^6 cells/mL) for 120 min under the conditions of 37° C./5% CO2/saturated humidity. The sample was centrifuged after protein precipitation by using acetonitrile solution containing 0.1% formic acid according to the proportion of 1:2, the supernatant was blown dry by nitrogen, and then redissolved by using 200 μl of a 10% acetonitrile/water (containing 0.1% formic acid) solution. 15 μL of the obtained solution was introduced each time to an LC-MS instrument system for analysis.

Q: Which results are given for `Cc1n(CCCCCCCCCCCC(F)(F)C(F)(F)C(F)(F)C(F)(F)C(F)(F)F)cc[n+]1Cc1c(Cl)cccc1Cl.[Cl-]` [IB-33]?
A: half-life at 1 μM [1]: > 145 min; blood sugar in sugar tolerance test (ip-GTT) (C57BL/6J male mice): significantly lower blood sugar; also recorded: effective in lowering blood sugar; Degree of AMPK activation, p-ACC/ACC (AMPK): 0.94; Degree of AMPK activation, p-AMPKα/AMPK (AMPK): 0.54; metabolic stability in human hepatocytes (in words) (human hepatocytes; human hepatocyte incubation, 120 min): relatively stable; relative content of original drug remained (human hepatocytes; human hepatocytes, after incubation for 120 min): 79%; Relative abundance (MS peak area %) (human hepatocytes; incubation of IB-33 10 μM with human hepatocytes, 120 min, parent drug and its possible metabolites): 79.31%
